# Patent publication US11103520B2, “Analogs of N-acetlyglucosamine and uses thereof” (THE REGENTS OF THE UNIVERSITY OF CALIFORNIA, priority 2014, dated 2021)
# “Also recorded” adds a separate entry of the source.
# Legend:
# human T cells [1] = assay: N-glycan branching (L-PHA) in human T cells; assay type: cell-based; conditions: PMA/Ionomycin stimulation, FIG. 9 and FIG. 10
# Text: Relative L-PHA (%) in human T cells is plotted as a function of PMA/Ionomycin stimulation and GlcNAc/GlcNAc-diacetate concentrations.
# Relative L-PHA (%) in human T cells is plotted as a function of PMA/Ionomycin stimulation and GlcNAc/GlcNAc-monoacetate concentrations.
# N-glycan branching = conditions: in vitro; cited from earlier work
# mouse T cells = assay: Mouse splenocyte cultures (L-PHA, CD69, CFSE proliferation); assay type: cell-based; conditions: splenocytes, anti-CD3 1 μg/mL; FIG. 15
# Protocol: FIG. 15A is a graph illustrating splenocytes from C57/BL6 female (n=6, 8-24 weeks old) or male (n=5, 10-13 weeks old) mice after culturing in the presence of anti-CD3 (1 μg/mL). Cells were collected on day 3, and labeled for FACS analysis. FIG. 15B is a series of graphs illustrating in vitro cultures of splenocytes either un-stimulated (resting) or anti-CD3 (1 μg/mL) activated. G-6-A (20 mM) and or GlcNAc (40 mM). Cells were harvested over a three-day time course, and labeled for FACS analysis. FIG. 15C is a graph illustrating in vitro stimulated splenocytes (anti-CD3 at 1 μg/mL) that were cultured for three-days and labeled for FACS analysis of the T cell activation marker CD69 at the time points indicated. […] Splenocytes were labeled with 1 uM of CFSE prior to in vitro anti-CD3 (1 μg/mL) activation for three-days. Overlaying histograms is on gated CD4+ cells.
# Cells were collected on day 3, and labeled for FACS analysis. Data shown is on gated CD4^+ cells, and percent changes of L-PHA MFI were normalized to a media only control.
# G-6-A (20 mM) and or GlcNAc (40 mM). Cells were harvested over a three-day time course, and labeled for FACS analysis. Data shown is on gated CD4^+ cells, and percent changes of L-PHA MFI were normalized to a media only control.
# Data shown is on gated CD4^+ cells. […]
# [2] = system: C57/BL6 mice immunized with MOG35-55 peptide; assay: Oral treatment, N-glycan branching in mouse T cells in vivo; conditions: 1 mg/mL in drinking water, five days post immunization, CD4+ blasts
# Protocol: Ten-week old female C57/BL6 were immunized with 100 μg of MOG35-55 peptide in a 1:1 mixture with CFA. Groups were non-immunized (n=2), immunized and given drinking water alone (n=3), immunized and given GlcNAc at 1 mg/mL in drinking water (n=3), or immunized and given G-6-A at 1 mg/mL in drinking water (n=3). Splenocytes were harvested five days post immunization, and labeled for FACS analysis. For GlcNAc and G-6-A treated groups, each mouse drank an average of 3 mL per day. Data shown is gated on a blasting region on CD4^+ cells.
# human T cells [3] = assay: CD25 and CD69 expression in human T cells stimulated with α-CD3; assay type: cell-based; conditions: FIG. 11
# Text: FIG. 12A is a graph that plots CD25 expression (%) in human T cells as a function of α-CD3 and GlcNAc/GlcNAc 6-acetate concentrations. FIG. 12B is a graph that plots CD69 expression (%) in human T cells as a function of α-CD3 and GlcNAc/GlcNAc 6-acetate concentrations.
# [4] = cited from earlier work
# non-obese diabetic mice = conditions: oral, initiated prior to disease onset; cited from earlier work
# [5] = system: mice immunized with MOG 35-55 peptide; assay: Oral GlcNAc in mice immunized with MOG 35-55 peptide, splenocytes re-stimulated in culture; assay type: in vivo, mouse
# Protocol: The data plotted in FIG. 6A was obtained from experiments in which splenocytes were isolated from mice and cultured in vitro with the indicated concentrations of GlcNAc under resting or activated (1000 ng/ml anti-CD3) conditions for 3 days, stained with L-PHA-FITC in triplicate, and analyzed by FACS. The data plotted in FIGS. 6B-6E were obtained from experiments in which mice were immunized with the indicated amounts of MOG 35-55 peptide emulsified in Complete Freund's adjuvant and treated with GlcNAc at the same time by supplementing their drinking water at 0.25 mg/ml GlcNAc and control mice that were immunized with the indicated amounts of MOG 35-55 peptide but not treated with GlcNAc. […] Although not wishing to be bound by any particular theory, the reduction in CD25^+T cell blasts at the highest antigen concentrations is consistent with the explanation that the reduction is secondary to the observed increase in cell death, consistent with antigen-induced cell death at high antigen stimulation levels.
# [6] = system: peripheral blood mononuclear cells; conditions: induced by MS-associated MGAT1 variant; cited from earlier work
# C57BL/6 mice = assay: EAE in C57BL/6 mice, oral GlcNAc after disease onset; assay type: in vivo, mouse
# Protocol: FIG. 7A is a graph that plots mean clinical EAE score as a function of days after disease onset for control and treated groups of mice. […] Error bars in FIGS. 7A and 7D represent the means±S.E. of duplicate or greater values unless otherwise stated.
# The data plotted in FIG. 7A was obtained from experiments in which EAE was induced in C57BL/6 mice by immunization with MOG 35-55 peptide emulsified in Complete Freund's adjuvant and pertussis toxin. GlcNAc mice were treated orally with GlcNAc by supplementing the drinking water at 0.25 mg/ml starting on the second day after disease onset and continued for the duration of the study and control mice were given drinking water not supplemented with GlcNAc (n=9 per control group, n=7 per GlcNAc group). Day 1 indicates the first day of disease onset. Mice were examined daily for clinical signs of EAE over the next 30 days with the observer blinded to treatment conditions and scored daily as follows: 0, no disease; 1, loss of tail tone; 2, hindlimb weakness; 3, hindlimb paralysis; 4, forelimb weakness or paralysis and hindlimb paralysis; 5, moribund or dead. Mean clinical scores per group daily were compared by the Mann-Whitney U test. […] Error bars in FIGS. 7A and 7D represent the means±S.E. of duplicate or greater values unless otherwise stated.
# myelin-reactive T cells = conditions: T cells treated in vitro, transferred into naïve mice; cited from earlier work
# 2D2 TCR transgenic mice = assay: EAE in 2D2 TCR transgenic mice, oral GlcNAc after disease onset; assay type: in vivo, mouse; conditions: oral 0.25 mg/ml after onset
# Text: Day 1 indicates the first day of disease onset. […] Mean clinical scores per group daily were compared by the Mann-Whitney U test.
# animals = conditions: in vivo; cited from earlier work
# [7] = system: pediatric treatment-resistant inflammatory bowel disease patients; conditions: oral GlcNAc; remission for approximately 2 years; cited from earlier work
# humans = conditions: supplement use for many years; cited from earlier work
# [8] = oral, 0.25 mg/ml in drinking water, 14 days, vs control mice
compound,measurement,setting,value
"CC(=O)N[C@H]1C(O)O[C@H](CO)[C@@H](OC(C)=O)[C@@H]1OC(C)=O (stereo partly shown) [N-acetylglucosamine 3,4 diacetate]",N-glycan branching (Relative L-PHA (%)),human T cells [1],GlcNAc increases N-glycan branching to greater effect than N-acetylglucosamine-diacetate compounds
N[C@H]1C(O)O[C@H](CO)[C@@H](O)[C@@H]1O (stereo partly shown) [glucosamine],N-glycan branching with increasing concentration,N-glycan branching,initially increasing but subsequently decreasing N-glycan branching
"CC(=O)N[C@H]1C(O)O[C@H](COC(C)=O)[C@@H](O)[C@@H]1OC(C)=O (stereo partly shown) [N-acetylglucosamine 3,6 diacetate]",N-glycan branching (Relative L-PHA (%)),human T cells [1],GlcNAc increases N-glycan branching to greater effect than N-acetylglucosamine-diacetate compounds
"CC(=O)N[C@H]1C(O)O[C@H](COC(C)=O)[C@@H](OC(C)=O)[C@@H]1O (stereo partly shown) [N-acetylglucosamine 4,6 diacetate]",N-glycan branching (Relative L-PHA (%)),human T cells [1],GlcNAc increases N-glycan branching to greater effect than N-acetylglucosamine-diacetate compounds
CC(=O)N[C@H]1C(O)O[C@H](COC(C)=O)[C@@H](O)[C@@H]1O (stereo partly shown) [N-acetylglucosamine 6-acetate],N-glycan branching (Relative L-PHA (%)),human T cells [1],increases N-glycan branching to greater effect than GlcNAc or N-acetylglucosamine 3-acetate
same,effectiveness in mouse T cells,mouse T cells,more effective than GlcNAc in mouse T cells
same,N-glycan branching in mouse T cells in vivo,[2],increases N-glycan branching in mouse T cells in vivo
same,CD25 expression (%),human T cells [3],inhibits CD25 and CD69 expression to greater effect than GlcNAc
same,CD69 expression (%),human T cells [3],inhibits CD25 and CD69 expression to greater effect than GlcNAc
"CC(=O)N[C@H]1C(OC(C)=O)O[C@H](COC(C)=O)[C@@H](OC(C)=O)[C@@H]1OC(C)=O (stereo partly shown) [GlcNAc-tetraacetate, N-acetylglucosamine tetraacetate]",membrane permeability,[4],increased membrane permeability as compared with GlcNAc
CC(=O)N[C@H]1C(O)O[C@H](CO)[C@@H](O)[C@@H]1OC(C)=O (stereo partly shown) [N-acetylglucosamine 3-acetate],N-glycan branching (Relative L-PHA (%)),human T cells [1],N-acetylglucosamine 6-acetate increases N-glycan branching to greater effect than GlcNAc or N-acetylglucosamine 3-acetate
"CC(=O)N[C@@H](C=O)[C@@H](O)[C@H](O)[C@H](O)CO [GlcNAc, 2-(acetylamino)-2-deoxy-D-glucose]",N-glycan branching (Relative L-PHA (%)),human T cells [1],increases N-glycan branching to greater effect than N-acetylglucosamine-diacetate compounds; also recorded: N-acetylglucosamine 6-acetate increases N-glycan branching to greater effect than GlcNAc
same,spontaneous autoimmune diabetes,non-obese diabetic mice,suppress spontaneous autoimmune diabetes
same,"secretion of Th1 (IFN-γ, TNF-α) and Th17 (IL-17, IL-22) cytokines","[5]; oral treatment in vivo, re-stimulation with MOG 35-55 in vitro",inhibited secretion of Th1 cytokines (IFN-γ and TNF-α) and Th17 cytokines (IL-17 and IL-22)
same,CD4+CD25+FoxP3+ regulatory T cells,[5]; [8],promoted development of CD4^+CD25^+FoxP3^+ regulatory T cells
same,CD25+ T cells upon re-stimulation with MOG 35-55 peptide,[5]; [8],reduced CD25^+T cells
same,N-glycan branching with increasing concentration,N-glycan branching,only enhance N-glycan branching
same,N-glycan branching deficiency and T cell hyper-proliferation,[6],rescued N-glycan branching deficiency and T cell hyper-proliferation
same,clinical course of EAE (mean clinical score),"C57BL/6 mice; C57BL/6 mice, oral 0.25 mg/ml in drinking water from second day after onset",attenuates the clinical course of experimental autoimmune encephalomyelitis (EAE)
same,"production of pro-inflammatory cytokines IFN-γ, TNF-α, IL-17, IL-22",C57BL/6 mice; re-stimulation with MOG 35-55 peptide in vitro,"inhibited production of pro-inflammatory cytokines IFN-γ, TNF-α, IL-17, and IL-22"
same,N-glycan branching in T cells (L-PHA staining),C57BL/6 mice; representative mice at peak of disease,increased N-glycan branching in T cells
same,CD25+ T cells,"C57BL/6 mice; representative mice at peak of disease, vs control mice",significant reduction in CD25^+T cells
same,EAE after adoptive transfer of treated T cells,myelin-reactive T cells,inhibited EAE when these cells were adoptively transferred into naïve mice
same,"clinical course of EAE, moderate-severe disease",2D2 TCR transgenic mice; 2D2 TCR transgenic mice scored ≤4,attenuates the clinical course of EAE in moderate-severe disease
same,"clinical course of EAE, lethal disease",2D2 TCR transgenic mice; 2D2 TCR transgenic mice with scores of 5,not disease with rapid lethal progression
same,membrane permeability,[4],low membrane permeability (poor cell entry)
same,toxicity in chronic animal studies,animals,no associated toxicity
same,children in clinical remission,[7],8 of 12
same,adverse effects in humans,humans,without reported adverse effects
same,CD25 expression (%),human T cells [3],N-acetylglucosamine 6-acetate inhibits CD25 and CD69 expression to greater effect than GlcNAc
same,CD69 expression (%),human T cells [3],N-acetylglucosamine 6-acetate inhibits CD25 and CD69 expression to greater effect than GlcNAc
